Data: US8017600B2, “Imidazole compounds” (Janssen Pharmaceutica NV, priority 2004, dated 2011)

Assays:
[1] = target: T1, human histamine H4 receptor (Homo sapiens, UniProt Q9H3N8); test: Binding assay on recombinant human histamine H4 receptor (3H-histamine displacement); details: membranes of SK-N-MC or COS7 cells expressing human H4 receptor, Cheng-Prusoff
T1 construct: expressed in transfected cells; host or cells: SK-N-MC cells or COS7 cells, transient transfection; cell membranes
Experimental: SK-N-MC cells or COS7 cells were transiently transfected with pH4R and grown in 150 cm^2 tissue culture dishes. Cells were washed with saline solution, scraped with a cell scraper and collected by centrifugation (1000 rpm, 5 min). Cell membranes were prepared by homogenization of the cell pellet in 20 mM Tris-HCl with a polytron tissue homogenizer for 10 sec at high speed. Homogenate was centrifuged at 1000 rpm for 5 min at 4° C. The supernatant was then collected and centrifuged at 20,000×g for 25 min at 4° C. The final pellet was resuspended in 50 mM Tris-HCl. Cell membranes were incubated with ^3H-histamine (5-70 nM) in the presence or absence of excess histamine (10,000 nM). Incubation occurred at room temperature for 45 min. Membranes were harvested by rapid filtration over Whatman GF/C filters and washed 4 times with ice-cold 50 mM Tris HCl. Filters were then dried, mixed with scintillant and counted for radioactivity. SK-N-MC or COS7 cells expressing human histamine H4 receptor were used to measure the affinity of binding of other compounds and their ability to displace ^3H-ligand binding by incubating the above-described reaction in the presence of various concentrations of inhibitor or compound to be tested.

human eosinophils = test: Inhibition of histamine-induced eosinophil shape change (gated autofluorescence forward scatter assay); details: for Fold Change: eosinophil shape change, 10 μM antagonist; for effect on histamine-induced shape change: human eosinophils, result in words

Row | SMILES | Ki [1] [nM] | also measured
1 | Cc1[nH]c(-c2cccc(OCCCCC3CCN(C)CC3)c2)nc1-c1ccc(Cl)cc1 [Example 34, 4-(4-{3-[4-(4-Chloro-phenyl)-5-methyl-1H-imidazol-2-yl]-phenoxy}-butyl)-1-methyl-piperidine] | 33 | 
2 | CN1CCC(CCCCOc2cccc(-c3nc(-c4ccccc4)c(C(F)(F)F)[nH]3)c2)CC1 [Example 35, 1-Methyl-4-{4-[3-(4-phenyl-5-trifluoromethyl-1H-imidazol-2-yl)-phenoxy]-butyl}-piperidine] | 57 | 
3 | CN1CCC(CCCCOc2cc(-c3nc(-c4ccccc4)c(C(F)(F)F)[nH]3)ccn2)CC1 [Example 36, 2-[4-(1-Methyl-piperidin-4-yl)-butoxy]-4-(4-phenyl-5-trifluoromethyl-1H-imidazol-2-yl)-pyridine] | 54 | 
4 | Cc1[nH]c(-c2ccnc(OCCCCC3CCN(C)CC3)c2)nc1-c1cccc(C(F)(F)F)c1 [Example 37, 2-[4-(1-Methyl-piperidin-4-yl)-butoxy]-4-[5-methyl-4-(3-trifluoromethyl-phenyl)-1H-imidazol-2-yl]-pyridine] | 174 | 
5 | Cc1cc(OCCCC2CCN(C)CC2)ccc1-c1nc(C)c(CC(C)C)[nH]1 [Example 38, 4-{3-[4-(5-Isobutyl-4-methyl-1H-imidazol-2-yl)-3-methyl-phenoxy]-propyl}-1-methyl-piperidine] | 230 | 
6 | Cc1[nH]c(-c2ccnc(OCCCCC3CCN(C)CC3)c2)nc1-c1ccc(Cl)cc1 [Example 39, 4-[4-(4-Chloro-phenyl)-5-methyl-1H-imidazol-2-yl]-2-[4-(1-methyl-piperidin-4-yl)-butoxy]-pyridine] | 230 | 
7 | CN1CCC(CCCCOc2cccc(-c3nc4cccnc4[nH]3)c2)CC1 [Example 69, 2-{3-[4-(1-Methyl-piperidin-4-yl)-butoxy]-phenyl}-3H-imidazo[4,5-b]pyridine] | 1410 | 
8 | CN1CCN(C(=O)c2cc3cc(Cl)ccc3[nH]2)CC1 [H4 Antagonist, (5-chloro-1H-indol-2-yl)-(4-methyl-piperazin-1-yl)-methanone] |  | IC50 (human eosinophils; Homo sapiens, Eosinophil, read-out: IC50 of inhibition of histamine-induced eosinophil shape change): 270 nM
9 | CN(C)CCOC(c1ccccc1)c1ccccc1 [diphenhydramine] |  | Fold Change (human eosinophils; histamine 0 μM): 1.00; Fold Change (human eosinophils; histamine 0.01 μM): 1.03; Fold Change (human eosinophils; histamine 0.1 μM): 1.18; Fold Change (human eosinophils; histamine 1 μM): 1.50; Fold Change (human eosinophils; histamine 10 μM): 1.63; effect on histamine-induced shape change (human eosinophils): did not alter the histamine-induced shape change
10 | CNC(=C[N+](=O)[O-])NCCSCc1ccc(CN(C)C)o1 [ranatidine] |  | Fold Change (human eosinophils; histamine 0 μM): 1.00; Fold Change (human eosinophils; histamine 0.01 μM): 1.04; Fold Change (human eosinophils; histamine 0.1 μM): 1.21; Fold Change (human eosinophils; histamine 1 μM): 1.49; Fold Change (human eosinophils; histamine 10 μM): 1.64; effect on histamine-induced shape change (human eosinophils): did not alter the histamine-induced shape change

More lines, main results first:

Row | Ki [1] [nM] | SMILES | also measured
11 | 93 | Cc1nc(-c2ccc(OCCCC3CCN(C)CC3)cc2Cl)[nH]c1CC(C)C [Example 40, 4-{3-[3-Chloro-4-(5-isobutyl-4-methyl-1H-imidazol-2-yl)-phenoxy]-propyl}-1-methyl-piperidine] | 
12 | 250 | Cc1[nH]c(-c2cccc(OCCCCC3CCN(C)CC3)c2)nc1-c1ccc(C(F)(F)F)cc1 [Example 41, 1-Methyl-4-(4-{3-[5-methyl-4-(4-trifluoromethyl-phenyl)-1H-imidazol-2-yl]-phenoxy}-butyl)-piperidine] | 
13 | 1960 | CN1CCN(CCCOc2ccc(-c3ncc[nH]3)cc2Cl)CC1 [Example 42, 1-{3-[2-Chloro-4-(1H-imidazol-2-yl)-phenoxy]-propyl}-4-methyl-piperazine] | 
14 | 2510 | Cc1nc(-c2ccc(OCCCN3CCN(C)CC3)cc2Cl)[nH]c1C [Example 43, 1-{3-[3-Chloro-4-(4,5-dimethyl-1H-imidazol-2-yl)-phenoxy]-propyl}-4-methyl-piperazine] | 
15 | 20 | CN1CCN(CCCOc2ccc(-c3nc(-c4ccccc4)c(C(F)(F)F)[nH]3)c(Cl)c2)CC1 [Example 44, 1-{3-[3-Chloro-4-(4-phenyl-5-trifluoromethyl-1H-imidazol-2-yl)-phenoxy]-propyl}-4-methyl-piperazine] | 
16 | 79 | CN1CCCN(CCCOc2ccc(-c3nc(-c4ccccc4)c(C(F)(F)F)[nH]3)cc2Cl)CC1 [Example 45, 1-{3-[2-Chloro-4-(4-phenyl-5-trifluoromethyl-1H-imidazol-2-yl)-phenoxy]-propyl}-4-methyl-[1,4]diazepane] | 
17 | 16 | Cc1cc(OCCCC2CCN(C)CC2)ccc1-c1nc(-c2cccc(C(F)(F)F)c2)c(C)[nH]1 [Example 46, 1-Methyl-4-(3-{3-methyl-4-[5-methyl-4-(3-trifluoromethyl-phenyl)-1H-imidazol-2-yl]-phenoxy}-propyl)-piperidine] | 
18 | 33 | Cc1cc(OCCCC2CCN(C)CC2)ccc1-c1nc(-c2ccc(Cl)cc2)c(C)[nH]1 [Example 47, 4-(3-{4-[4-(4-Chloro-phenyl)-5-methyl-1H-imidazol-2-yl]-3-methyl-phenoxy}-propyl)-1-methyl-piperidine] | 
19 | 620 | Cc1cc(OCCOC2CCN(C)CC2)ccc1-c1nc(-c2ccc(Cl)cc2)c(C)[nH]1 [Example 48, 4-(2-{4-[4-(4-Chloro-phenyl)-5-methyl-1H-imidazol-2-yl]-3-methyl-phenoxy}-ethoxy)-1-methyl-piperidine] | 
